The record followed here is patent publication US20230116114A1, “COMPOUNDS AND COMPOSITIONS FOR TREATING CNS DISORDERS” (Blue Oak Pharmaceuticals, Inc., priority 2020, published 2023).

The test system of this assay is mice. Nature of the assay: SmartCube in vivo neuropharmacological behavioral assay. Particulars: for minimal effective dose: Mus musculus, ip, 0.25 h, dose having 50% or more total activity in SmartCube, i.p., read-out: MED (minimal effective dose); for AD: antidepressant (percent probability) / AG: analgesic (percent probability) / AP: antipsychotic (percent probability) / AX: anxiolytic (percent probability) / CE: cognitive enhancer (percent probability) / HA: hallucinogenic (percent probability) / MS: mood stabilizer (percent probability) / PS (percent probability) / SD: sedative hypnotic (percent probability) / SE: side effects (percent probability) / UN: uncharacterized CNS activity (percent probability) / XG: anxiogenic (percent probability): SmartCube, i.p. 15 min before test, result at the MED. How it is done: The compounds were evaluated for their CNS related properties (e.g., the treatment, prevention or diagnosis of CNS or CNS-related disorders and/or amelioration of symptoms) using neuropharmacological screening methods described in S. L. Roberts et al., Front. Neurosci. 2011, 5:103 (hereinafter referred to as “Roberts,” the contents of which are incorporated herein by reference in their entirety).
According to Roberts, intact systems are useful in detecting improvement in disease-relevant endpoints, because psychiatric diseases generally result from disorders of cell-cell communication or circuitry. The endpoints are typically behavioral in nature, often requiring human observation and interpretation. In order to test multiple compounds for behavioral effects relevant to neurological and psychiatric diseases and disorders, PsychoGenics, Inc. (Paramus, N.J. “PGI”) developed SmartCube®, an automated system in which behaviors of compound-treated mice are captured by digital video and analyzed with computer algorithms to facilitate testing of multiple compounds for behavioral effects relevant to psychiatric disease. (D. Brunner et al., Drug Discov. Today 2002, 7:S107-S112; Alexandrov et al., Eur. J. Pharmacol. 2015, 753:127-134; the contents of each of which are incorporated herein by reference in their entirety).
The SmartCube® system is described in Example 2.2 of U.S. Pat. No. 9,758,529 and Example 289 of WIPO Publication No. WO2018/023070, the contents of each of which are incorporated herein by reference in their entirety.
According to the present disclosure, compounds identified may be evaluated using the SmartCube® system. The results of such analysis correlate certain patterns or combinations of behaviors to CNS effects along a percent probability scale of 0-100 where zero (0) reflects the limit of quantitation (LOQ).
The compounds of the present disclosure were evaluated for their CNS related properties (e.g., the treatment, prevention or diagnosis of CNS or CNS-related disorders and/or amelioration of symptoms) using neuropharmacological screening methods described in S. L. Roberts et al., Front. Neurosci. 2011, 5:103 (hereinafter referred to as “Roberts,” the contents of which are incorporated herein by reference in their entirety).
The SmartCube® system described herein was utilized to compare the behavioral signature of a test compound to a database of behavioral signatures obtained using a large set of diverse reference compounds (including but not limited to antipsychotics, anxiolytics, antidepressants and bipolar disorder medicine), thereby predicting the neuropharmacological effects of a test compound by similarity to major classes of compounds. It produces an activity signature indicating the probability that the activity of the test compound at the administered dose matches a given class of neuropharmacological agents. The test compound is simultaneously compared against multiple classes of agents; thus, a separate probability is generated for each behavioral effect measured (such as but not limited to anxiolytic activity and analgesic activity).
The compounds of the present disclosure were dissolved in a mixture of Pharmasolve™ (N-methyl-2-pyrrolidone (NMP)) and were injected i.p. 15 min. before the behavioral test. For each compound, injections were administered at different dose levels (e.g., 0.3, 1, 3, 10 and 30 mg per kg (mpk)). A compound's minimal effective dose (MED; see Table 3) is a measure of the compound's potency. The MED was defined as the dose (in mpk) having 50% or more total activity in SmartCube®. For each behavioral effect measured, results at the MED are presented. CNS activities of the compounds were recorded (see Table 2). In Table 1, a key to the percent probabilities (probability ×100) for each behavioral effect (“X”) are defined provided, where LOQ is the limit of quantification.

Structures can show the parent of a compound that is named as a salt.

As usually defined, the minimal effective dose is the lowest level tested that produced the effect sought. Turning to `CO[C@@H]1CC[C@H]2c3ccccc3[C@@H]1N2C(C)C` (stereo in doubt) [Compound 34, 9-Methoxy-12-(propan-2-yl)-12-azatricyclo[6.3.1.0^2,7]dodeca-2,4,6-triene hydrochloride], the minimal effective dose was 10 to 30 mg/kg, the “AD: antidepressant (percent probability)” value is recorded as “++ (5% ≤ X < 25%)”, the “AG: analgesic (percent probability)” value is listed as “+ (LOQ ≤ X < 5%)” and the “AP: antipsychotic (percent probability)” value is reported as “+ (LOQ ≤ X < 5%)”. The “AX: anxiolytic (percent probability)” value is on record as “++ (5% ≤ X < 25%)”, the “CE: cognitive enhancer (percent probability)” value is “+ (LOQ ≤ X < 5%)”, the “HA: hallucinogenic (percent probability)” value was “+ (LOQ ≤ X < 5%)” and the “MS: mood stabilizer (percent probability)” value (“MS … (percent probability)” below) was “+ (LOQ ≤ X < 5%)”. The “PS (percent probability)” value is reported as “+ (LOQ ≤ X < 5%)”, the “SD: sedative hypnotic (percent probability)” value (“SD … (percent probability)” below) is “+ (LOQ ≤ X < 5%)”, the “SE: side effects (percent probability)” value was “+ (LOQ ≤ X < 5%)” and the “UN: uncharacterized CNS activity (percent probability)” value (“UN … (percent probability)” below) is on record as “++ (5% ≤ X < 25%)”. For the same molecule, the “XG: anxiogenic (percent probability)” value is recorded as “+ (LOQ ≤ X < 5%)”.

Turning to `CC(C)CN1C2CCCC1c1ccccc12` [Compound 8, 12-(2-Methylpropyl)-12-azatricyclo[6.3.1.0^2,7]dodeca-2,4,6-triene], the minimal effective dose lay in the range of 10 to 30 mg/kg, the “AD: antidepressant (percent probability)” value is listed as “++++ (50% ≤ X < 100%)”, the “AG: analgesic (percent probability)” value is given as “+ (LOQ ≤ X < 5%)” and the “AP: antipsychotic (percent probability)” value is listed as “+ (LOQ ≤ X < 5%)”. In addition, the “AX: anxiolytic (percent probability)” value is recorded as “++ (5% ≤ X < 25%)”, the “CE: cognitive enhancer (percent probability)” value is on record as “+ (LOQ ≤ X < 5%)”, the “HA: hallucinogenic (percent probability)” value is listed as “+ (LOQ ≤ X < 5%)” and the “MS … (percent probability)” value was “+ (LOQ ≤ X < 5%)”. Besides, the “PS (percent probability)” value is reported as “++ (5% ≤ X < 25%)”, the “SD … (percent probability)” value is recorded as “+ (LOQ ≤ X < 5%)”, the “SE: side effects (percent probability)” value is on record as “+ (LOQ ≤ X < 5%)” and the “UN … (percent probability)” value was “+ (LOQ ≤ X < 5%)”. Moreover, the “XG: anxiogenic (percent probability)” value is “+ (LOQ ≤ X < 5%)”.

In the case of `c1ccc2c(c1)C1CCCC2N1C1CCOC1` (stereo not shown) [Compound 9, 12-(Oxolan-3-yl)-12-azatricyclo[6.3.1.0^2,7]dodeca-2,4,6-triene hydrochloride], the minimal effective dose is 10 to 30 mg/kg, the “AD: antidepressant (percent probability)” value is “+++ (25% ≤ X < 50%)”, the “AG: analgesic (percent probability)” value is listed as “++ (5% ≤ X < 25%)” and the “AP: antipsychotic (percent probability)” value was “+ (LOQ ≤ X < 5%)”. Moreover, the “AX: anxiolytic (percent probability)” value is on record as “++ (5% ≤ X < 25%)”, the “CE: cognitive enhancer (percent probability)” value is on record as “+ (LOQ ≤ X < 5%)”, the “HA: hallucinogenic (percent probability)” value is recorded as “+ (LOQ ≤ X < 5%)” and the “MS … (percent probability)” value is on record as “+ (LOQ ≤ X < 5%)”. Also, the “PS (percent probability)” value is reported as “+ (LOQ ≤ X < 5%)”, the “SD … (percent probability)” value is reported as “+ (LOQ ≤ X < 5%)”, the “SE: side effects (percent probability)” value is listed as “+ (LOQ ≤ X < 5%)” and the “UN … (percent probability)” value is given as “++ (5% ≤ X < 25%)”. The “XG: anxiogenic (percent probability)” value was “++ (5% ≤ X < 25%)”.

For `Fc1cc2c(cc1F)C1CCCC2N1` [Compound 40, 4,5-Difluoro-12-azatricyclo[6.3.1.0^2,7]dodeca-2,4,6-triene hydrochloride], the minimal effective dose is more than 30 mg/kg, the “AD: antidepressant (percent probability)” value is recorded as “++ (5% ≤ X < 25%)”, the “AG: analgesic (percent probability)” value is reported as “++ (5% ≤ X < 25%)” and the “AP: antipsychotic (percent probability)” value is “+ (LOQ ≤ X < 5%)”. For the same molecule, the “AX: anxiolytic (percent probability)” value is “++ (5% ≤ X < 25%)”, the “CE: cognitive enhancer (percent probability)” value is “+ (LOQ ≤ X < 5%)”, the “HA: hallucinogenic (percent probability)” value is recorded as “+ (LOQ ≤ X < 5%)” and the “MS … (percent probability)” value is listed as “+ (LOQ ≤ X < 5%)”. The “PS (percent probability)” value is “++ (5% ≤ X < 25%)”, the “SD … (percent probability)” value is listed as “+ (LOQ ≤ X < 5%)”, the “SE: side effects (percent probability)” value is recorded as “+ (LOQ ≤ X < 5%)” and the “UN … (percent probability)” value was “+ (LOQ ≤ X < 5%)”. The “XG: anxiogenic (percent probability)” value is given as “+ (LOQ ≤ X < 5%)”.

As to `CC(C)C(C)N1C2CCCC1c1ccccc12` (stereo not shown) [Compound 22, 12-(3-Methylbutan-2-yl)-12-azatricyclo[6.3.1.0^2,7]dodeca-2,4,6-triene hydrochloride], the minimal effective dose lay within 1 to 10 mg/kg, the “AD: antidepressant (percent probability)” value is listed as “++ (5% ≤ X < 25%)”, the “AG: analgesic (percent probability)” value is “+ (LOQ ≤ X < 5%)” and the “AP: antipsychotic (percent probability)” value was “+ (LOQ ≤ X < 5%)”. In addition, the “AX: anxiolytic (percent probability)” value is “+ (LOQ ≤ X < 5%)”, the “CE: cognitive enhancer (percent probability)” value is given as “+ (LOQ ≤ X < 5%)”, the “HA: hallucinogenic (percent probability)” value is reported as “+ (LOQ ≤ X < 5%)” and the “MS … (percent probability)” value is reported as “+ (LOQ ≤ X < 5%)”. Moreover, the “PS (percent probability)” value was “+ (LOQ ≤ X < 5%)”, the “SD … (percent probability)” value is on record as “+ (LOQ ≤ X < 5%)”, the “SE: side effects (percent probability)” value is reported as “+ (LOQ ≤ X < 5%)” and the “UN … (percent probability)” value is “++++ (50% ≤ X < 100%)”. Moreover, the “XG: anxiogenic (percent probability)” value is listed as “+ (LOQ ≤ X < 5%)”.

`CC[C@H](C)N1C2CCCC1c1ccccc12` [Compound 26, 12-[(2S)-Butan-2-yl]-12-azatricyclo[6.3.1.0^2,7]dodeca-2,4,6-triene hydrochloride]: the minimal effective dose lay in the range of 1 to 10 mg/kg, the “AD: antidepressant (percent probability)” value is recorded as “++++ (50% ≤ X < 100%)”, the “AG: analgesic (percent probability)” value is given as “+ (LOQ ≤ X < 5%)” and the “AP: antipsychotic (percent probability)” value was “+ (LOQ ≤ X < 5%)”. Further, the “AX: anxiolytic (percent probability)” value is given as “+ (LOQ ≤ X < 5%)”, the “CE: cognitive enhancer (percent probability)” value is “+ (LOQ ≤ X < 5%)”, the “HA: hallucinogenic (percent probability)” value is “++ (5% ≤ X < 25%)” and the “MS … (percent probability)” value was “+ (LOQ ≤ X < 5%)”. Besides, the “PS (percent probability)” value is “++ (5% ≤ X < 25%)”, the “SD … (percent probability)” value was “+ (LOQ ≤ X < 5%)”, the “SE: side effects (percent probability)” value is reported as “+ (LOQ ≤ X < 5%)” and the “UN … (percent probability)” value is “+ (LOQ ≤ X < 5%)”. For the same molecule, the “XG: anxiogenic (percent probability)” value is reported as “+ (LOQ ≤ X < 5%)”.

Consider `CCN1C2CCCC1c1ccccc12` [Compound 6, 12-Ethyl-12-azatricyclo[6.3.1.0,]dodeca-2,4,6-triene hydrochloride], for which the minimal effective dose was 10 to 30 mg/kg, the “AD: antidepressant (percent probability)” value was “+++ (25% ≤ X < 50%)”, the “AG: analgesic (percent probability)” value is “++ (5% ≤ X < 25%)” and the “AP: antipsychotic (percent probability)” value is “+ (LOQ ≤ X < 5%)”. Further, the “AX: anxiolytic (percent probability)” value is recorded as “++ (5% ≤ X < 25%)”, the “CE: cognitive enhancer (percent probability)” value was “+ (LOQ ≤ X < 5%)”, the “HA: hallucinogenic (percent probability)” value is given as “+ (LOQ ≤ X < 5%)” and the “MS … (percent probability)” value is on record as “+ (LOQ ≤ X < 5%)”. Moreover, the “PS (percent probability)” value is recorded as “+ (LOQ ≤ X < 5%)”, the “SD … (percent probability)” value is “+ (LOQ ≤ X < 5%)”, the “SE: side effects (percent probability)” value was “+ (LOQ ≤ X < 5%)” and the “UN … (percent probability)” value is “+ (LOQ ≤ X < 5%)”. The “XG: anxiogenic (percent probability)” value is “+ (LOQ ≤ X < 5%)”.
